Tests used:
Axl = biological target: T1, Axl (Homo sapiens, UniProt P30530); experiment: Biochemical potency, HTRF KinEASE-TK kinase assay; design: purchased Invitrogen; details: 5 nM AXL, 700 μM ATP
T1 sequence (P30530 26-894): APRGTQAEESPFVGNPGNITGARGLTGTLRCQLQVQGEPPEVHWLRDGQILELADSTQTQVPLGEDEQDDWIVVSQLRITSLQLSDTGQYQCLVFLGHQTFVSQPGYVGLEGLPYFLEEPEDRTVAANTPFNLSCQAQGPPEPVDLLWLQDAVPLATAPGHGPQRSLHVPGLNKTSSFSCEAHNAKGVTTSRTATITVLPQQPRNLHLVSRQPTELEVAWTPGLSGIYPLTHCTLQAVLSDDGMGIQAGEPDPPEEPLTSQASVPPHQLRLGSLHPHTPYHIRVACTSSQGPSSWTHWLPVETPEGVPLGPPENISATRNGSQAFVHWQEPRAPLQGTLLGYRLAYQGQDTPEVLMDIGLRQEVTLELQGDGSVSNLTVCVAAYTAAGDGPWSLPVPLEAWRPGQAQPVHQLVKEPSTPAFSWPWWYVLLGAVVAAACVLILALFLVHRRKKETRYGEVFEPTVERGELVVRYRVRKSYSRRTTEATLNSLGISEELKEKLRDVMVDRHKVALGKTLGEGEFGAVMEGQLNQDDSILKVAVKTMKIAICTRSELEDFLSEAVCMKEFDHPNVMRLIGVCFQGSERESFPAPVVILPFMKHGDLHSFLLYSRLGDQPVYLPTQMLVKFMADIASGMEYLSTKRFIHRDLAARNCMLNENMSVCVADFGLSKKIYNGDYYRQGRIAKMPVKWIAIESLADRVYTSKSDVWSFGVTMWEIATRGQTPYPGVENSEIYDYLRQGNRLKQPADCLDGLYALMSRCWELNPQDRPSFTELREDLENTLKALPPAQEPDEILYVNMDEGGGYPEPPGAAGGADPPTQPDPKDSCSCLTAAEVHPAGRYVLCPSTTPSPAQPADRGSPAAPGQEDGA
Method in brief: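 Enzyme (AXL 5 nM; TYRO3 or MER 1 nM final) was preincubated with compound for 1 h at RT, then reacted for 2 h at RT with 800 nM biotinylated TK substrate and 700 µM ATP in HEPES pH 7.4, MgCl2, DTT, BSA, 1% DMSO. Percent activity came from the HTRF 665/620 ratio.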

p-AXL = biological target: T2, p-AXL (Homo sapiens, UniProt P30530); experiment: Axl phosphorylation inhibition ELISA in HEK293T cells transfected with NanoLuc-tagged AXL; assay type: cell-based; details: 1 h compound incubation, media (OptiMEM)
T2 construct: expressed in transfected cells; host or cells: HEK293T
T2 sequence (P30530 26-894): T1 sequence (P30530 26-894)
Method in brief: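 Phospho-AXL detected by luminescence of NanoLuc tag after capture of cell lysate on biotinylated anti-phospho-tyrosine mAb plates (2 h). Lysates came from transiently transfected HEK293T cells treated 1 h at 37° C with serial 2-fold dilutions (22 points). IC50 by standard 4-parameter logistic fitting.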

Row | SMILES | IC50 (Axl) [nM] | IC50 (p-AXL) [nM]
1 | N#Cc1cccnc1-c1ccc(-c2c[nH]c3ncc(-c4ccc5c(c4)CC[C@@H](N4C6COCC4C6)CC5)cc23)cc1 [Example 46, 2-(4-{5-[(7S)-7-{3-Oxa-6-azabicyclo[3.1.1]heptan-6-yl}-6,7,8,9-tetrahydro-5H-benzo[7]annulen-2-yl]-1H-pyrrolo[2,3-b]pyridin-3-yl}phenyl)pyridine-3-carbonitrile] | < 100 | < 100
2 | Cc1nccnc1-c1ccc(-c2c[nH]c3ncc(-c4ccc5c(c4)CC[C@@H](N4C6COCC4C6)CC5)cc23)nc1 [Example 54, 6-[(7S)-2-{3-[5-(3-Methylpyrazin-2-yl)pyridin-2-yl]-1H-pyrrolo[2,3-b]pyridin-5-yl}-6,7,8,9-tetrahydro-5H-benzo[7]annulen-7-yl]-3-oxa-6-azabicyclo[3.1.1]heptane] | < 100 | < 100
3 | Cc1cnc(C)c(-c2ccc(-c3c[nH]c4ncc(-c5ccc6c(c5)CC[C@@H](N5C7COCC5C7)CC6)cc34)cc2)n1 [Example 53, 6-[(7S)-2-{3-[4-(3,6-Dimethylpyrazin-2-yl)phenyl]-1H-pyrrolo[2,3-b]pyridin-5-yl}-6,7,8,9-tetrahydro-5H-benzo[7]annulen-7-yl]-3-oxa-6-azabicyclo[3.1.1]heptane] | < 100 | < 100
4 | N#Cc1cccnc1-c1ccc(-c2n[nH]c3ncc(-c4ccc5c(c4)CC[C@@H](N4C6COCC4C6)CC5)cc23)cc1 [Example 52, 2-(4-{5-[(7S)-7-{3-Oxa-6-azabicyclo[3.1.1]heptan-6-yl}-6,7,8,9-tetrahydro-5H-benzo[7]annulen-2-yl]-1H-pyrazolo[3,4-b]pyridin-3-yl}phenyl)pyridine-3-carbonitrile] | < 100 | < 100
5 | COCCOc1cccnc1-c1ccc(-c2c[nH]c3ncc(-c4ccc5c(c4)CC[C@@H](N4C6COCC4C6)CC5)cc23)cc1 [Example 3, 6-[(7S)-2-(3-{4-[3-(2-Methoxyethoxy)pyridin-2-yl]phenyl}-1H-pyrrolo[2,3-b]pyridin-5-yl)-6,7,8,9-tetrahydro-5H-benzo[7]annulen-7-yl]-3-oxa-6-azabicyclo[3.1.1]heptane] | < 100 | < 100
6 | Cc1cccnc1-c1ccc(-c2n[nH]c3ncc(-c4ccc5c(c4)CC[C@@H](N4C6COCC4C6)CC5)cc23)cc1 [Example 2, 6-[(7S)-2-{3-[4-(3-Methylpyridin-2-yl)phenyl]-2H-pyrazolo[3,4-b]pyridin-5-yl}-6,7,8,9-tetrahydro-5H-benzo[7]annulen-7-yl]-3-oxa-6-azabicyclo[3.1.1]heptane] | < 100 | < 100
7 | Cc1ccnnc1-c1ccc(-c2c[nH]c3ncc(-c4ccc5c(c4)CC[C@@](C)(N4CCC[C@H]4C)CC5)cc23)cc1 [Example 51, 4-methyl-3-(4-{5-[(7S)-7-Methyl-7-[(2R)-2-methylpyrrolidin-1-yl]-6,7,8,9-tetrahydro-5H-benzo[7]annulen-2-yl]-1H-pyrrolo[2,3-b]pyridin-3-yl}phenyl)pyridazine] | < 100 | < 100

Second part, the molecule after the results:

Row | IC50 (Axl) [nM] | IC50 (p-AXL) [nM] | SMILES
8 | < 100 | 100 to 1000 | CS(=O)(=O)c1ccccc1-c1ccc(-c2c[nH]c3ncc(-c4ccc5c(c4)CC[C@@H](N4C6COCC4C6)CC5)cc23)cc1 [Example 93, 6-[(7S)-2-(3-{2′-Methanesulfonyl-[1,1′-biphenyl]-4-yl}-1H-pyrrolo[2,3-b]pyridin-5-yl)-6,7,8,9-tetrahydro-5H-benzo[7]annulen-7-yl]-3-oxa-6-azabicyclo[3.1.1]heptane]
9 | < 100 | 100 to 1000 | COc1ccnc(-c2ccc(-c3n[nH]c4ncc(-c5ccc6c(c5)CC[C@@H](N5C7COCC5C7)CC6)cc34)cc2)c1C [Example 87, 6-[(7S)-3-[3-[4-(4-Methoxy-3-methylpyridin-2-yl)phenyl]-1H-pyrazolo[3,4-b]pyridin-5-yl]-6,7,8,9-tetrahydro-5H-benzo[7]annulen-7-yl]-3-oxa-6-azabicyclo[3.1.1]heptane]
10 | < 100 | 100 to 1000 | FC(F)c1cccnc1-c1ccc(-c2n[nH]c3ncc(-c4ccc5c(c4)CC[C@@H](N4C6COCC4C6)CC5)cc23)cc1 [Example 89, 6-[(7S)-3-[3-[4-[3-(Difluoromethyl)pyridin-2-yl]phenyl]-1H-pyrazolo[3,4-b]pyridin-5-yl]-6,7,8,9-tetrahydro-5H-benzo[7]annulen-7-yl]-3-oxa-6-azabicyclo[3.1.1]heptane]
11 | < 100 | 100 to 1000 | C[C@@H]1CCCN1[C@@]1(C)CCc2ccc(-c3cnc4[nH]nc(-c5ccc(-c6nccs6)cc5)c4c3)cc2CC1 [Example 91, 2-(4-{5-[(7S)-7-Methyl-7-[(2R)-2-methylpyrrolidin-1-yl]-6,7,8,9-tetrahydro-5H-benzo[7]annulen-2-yl]-2H-pyrazolo[3,4-b]pyridin-3-yl}phenyl)-1,3-thiazole]
12 | < 100 | < 100 | CN(C)C(=O)c1ccccc1-c1ccc(-c2c[nH]c3ncc(-c4ccc5c(c4)CC[C@@H](N4C6COCC4C6)CC5)cc23)cc1 [Example 92, N,N-Dimethyl-4′-{5-[(7S)-7-{3-oxa-6-azabicyclo[3.1.1]heptan-6-yl}-6,7,8,9-tetrahydro-5H-benzo[7]annulen-2-yl]-1H-pyrrolo[2,3-b]pyridin-3-yl}-[1,1′-biphenyl]-2-carboxamide]
13 | < 100 | < 100 | Cc1cc(C)c(-c2ccc(-c3n[nH]c4ncc(-c5ccc6c(c5)CC[C@@H](N5C7COCC5C7)CC6)cc34)cc2)nn1 [Example 77, 6-[(7S)-2-{3-[4-(4,6-Dimethylpyridazin-3-yl)phenyl]-1H-pyrazolo[3,4-b]pyridin-5-yl}-6,7,8,9-tetrahydro-5H-benzo[7]annulen-7-yl]-3-oxa-6-azabicyclo[3.1.1]heptane]
14 | < 100 | 100 to 1000 | FC(F)(F)c1cccnc1-c1ccc(-c2n[nH]c3ncc(-c4ccc5c(c4)CC[C@@H](N4C6COCC4C6)CC5)cc23)cc1 [Example 88, 6-[(7S)-3-[3-[4-[3-(Trifluoromethyl)pyridin-2-yl]phenyl]-1H-pyrazolo[3,4-b]pyridin-5-yl]-6,7,8,9-tetrahydro-5H-benzo[7]annulen-7-yl]-3-oxa-6-azabicyclo[3.1.1]heptane]
15 | < 100 | < 100 | Cc1cnc(C)c(-c2ccc(-c3c[nH]c4ncc(-c5ccc6c(c5)CC[C@@](C)(N5CCC[C@H]5C)CC6)cc34)cc2)n1 [Example 58, 2,5-Dimethyl-3-(4-{5-[(7S)-7-methyl-7-[(2R)-2-methylpyrrolidin-1-yl]-6,7,8,9-tetrahydro-5H-benzo[7]annulen-2-yl]-1H-pyrrolo[2,3-b]pyridin-3-yl}phenyl)pyrazine]
16 | < 100 | < 100 | Cc1ccnnc1-c1ccc(-c2n[nH]c3ncc(-c4ccc5c(c4)CC[C@@H](N4C6COCC4C6)CC5)cc23)nc1 [Example 56, 6-[(7S)-2-{3-[5-(4-Methylpyridazin-3-yl)pyridin-2-yl]-1H-pyrazolo[3,4-b]pyridin-5-yl}-6,7,8,9-tetrahydro-5H-benzo[7]annulen-7-yl]-3-oxa-6-azabicyclo[3.1.1]heptane]
17 | < 100 | < 100 | CC(C)(C#N)c1cccnc1-c1ccc(-c2n[nH]c3ncc(-c4ccc5c(c4)CC[C@@H](N4C6COCC4C6)CC5)cc23)cc1 [Example 85, 2-Methyl-2-[2-[4-[5-[(7S)-7-(3-oxa-6-azabicyclo[3.1.1]heptan-6-yl)-6,7,8,9-tetrahydro-5H-benzo[7]annulen-3-yl]-1H-pyrazolo[3,4-b]pyridine-3-yl]phenyl]pyridine-3-yl]propanenitrile]

— patent US12195482B1 (Arcus Biosciences, Inc., priority 2022, dated 2025)
